# Columns and labels:
# Assay in all cases: relative viability (nuclei count vs DMSO), 5 days (fraction); higher = more cells survive
# Metformin + Palbociclib = compound: CN(C)C(=N)NC(=N)N [Metformin] + CC(=O)c1c(C)c2cnc(Nc3ccc(N4CCNCC4)cn3)nc2n(C2CCCC2)c1=O [Palbociclib] (partner 0.5 µM)
# Outline: (§1)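 Five library-drug doses in √10 steps were combined with a fixed anchor-drug dose, or a single drug was given alone, by pin tool to lung cancer cell lines in 1536-well plates the day after seeding. Nuclei were stained and counted after 5 days. Relative viability is the nuclei count in treated wells over that in vehicle wells, taken as the median of duplicate plates.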
# Metformin + Pemetrexed = compound: CN(C)C(=N)NC(=N)N [Metformin] + Nc1nc2[nH]cc(CCc3ccc(C(=O)N[C@@H](CCC(=O)O)C(=O)O)cc3)c2c(=O)[nH]1 [Pemetrexed] (partner 0.2 µM)
# Outline: as §1
# Apatinib + Pemetrexed = compound: N#CC1(c2ccc(NC(=O)c3cccnc3NCc3ccncc3)cc2)CCCC1 [Apatinib] + Nc1nc2[nH]cc(CCc3ccc(C(=O)N[C@@H](CCC(=O)O)C(=O)O)cc3)c2c(=O)[nH]1 [Pemetrexed] (partner 0.2 µM)
# Outline: as §1
# Apatinib + Olaparib = compound: N#CC1(c2ccc(NC(=O)c3cccnc3NCc3ccncc3)cc2)CCCC1 [Apatinib] + O=C(c1cc(Cc2n[nH]c(=O)c3ccccc23)ccc1F)N1CCN(C(=O)C2CC2)CC1 [Olaparib] (partner 8 µM)
# Outline: as §1
cell line,measurement,setting,value
NCI-H460,relative viability,Metformin + Palbociclib; first compound 31.62 µM,0.191
same,relative viability,Metformin + Palbociclib; first compound 100 µM,0.249
same,relative viability,Metformin + Palbociclib; first compound 316.23 µM,0.105
same,relative viability,Metformin + Palbociclib; first compound 1000 µM,0.148
same,relative viability,Metformin + Pemetrexed; first compound 31.62 µM,0.0599
same,relative viability,Metformin + Pemetrexed; first compound 100 µM,0.0625
same,relative viability,Metformin + Pemetrexed; first compound 316.23 µM,0.0535
same,relative viability,Metformin + Pemetrexed; first compound 1000 µM,0.0639
same,relative viability,Apatinib + Pemetrexed; first compound 0.08 µM,0.0617
same,relative viability,Apatinib + Pemetrexed; first compound 0.253 µM,0.0695
same,relative viability,Apatinib + Pemetrexed; first compound 0.8 µM,0.0575
same,relative viability,Apatinib + Pemetrexed; first compound 2.53 µM,0.0757
same,relative viability,Apatinib + Pemetrexed; first compound 8 µM,0.0845
same,relative viability,Apatinib + Olaparib; first compound 0.08 µM,0.407
same,relative viability,Apatinib + Olaparib; first compound 0.253 µM,0.444
same,relative viability,Apatinib + Olaparib; first compound 0.8 µM,0.344
same,relative viability,Apatinib + Olaparib; first compound 2.53 µM,0.323
same,relative viability,Apatinib + Olaparib; first compound 8 µM,0.237

# — the supplement of paper PMC10307832
